Data taken from patent US5977144A (priority 1997, dated 1999).

Tests used:
rat alpha4beta2 receptor = rat alpha4beta2 receptor (Rattus norvegicus, UniProt P09483+P12390); assay: Antagonism of alpha4beta2 receptors in oocytes (residual inhibition of ACh response after drug); assay type: cell-based; conditions: xenopus oocytes
Procedure: Oocytes were prepared and recordings made as described previously (de Fiebre, et al., 1995). Frogs were anesthetized by submersion in 0.1% (3)-aminobenzoic acid ethyl ester and several lobes of the ovary surgically removed through a small incision in the abdomen wall. Oocytes were freed from the follicle cells by treatment with collagenase (in calcium-free Barth's solution: 88 mM NaCl, 1 mM KCl, 15 mM Hepes pH 7.6, 0.33 mM MgSO4, 0.1 mg/ml gentamicin sulfate) for 2 hr at room temperature and Stage 5 oocytes were isolated. Oocytes were rinsed and stored at 18° C. in Barth's saline (88 mM NaCl, 1 mM KCl, 15 mM Hepes pH 7.6, 0.3 mM Ca(NO3)2, 0.41 mM CaCl2, 0.82 mM MgSO4, 0.1 mg/ml gentamicin sulfate) before and after microinjection with RNA. Microinjection was conducted with a Drummond Scientific "Nanoject Variable" automatic injector. Oocytes were injected with a 50 nl solution of specified rat nicotinic subunit mRNA species (2-10 mg/ml; derived from the cDNA containing HIP 306 plasmid kindly provided by Dr. Jim Boulter, Salk Institute) and incubated 2-7 days at 18° C. before electrophysiological recording. electrophysiological recordings, oocytes were perfused in a Warner Instruments RC-8 recording chamber with a perfusion solution containing 115 mM NaCl, 2.5 mM KCl, 10 mM Hepes pH 7.2, 1.8 mM CaCl2 and 1 μM atropine to block muscarinic responses. Perfusion was continuous at a rate of 10 ml/min. Drags were diluted in perfusion solution and applied using a solenoid valve to switch from perfusion to drug solutions. Current responses to drug administration were studied under two electrode voltage clamp at a holding potential of -70 mV using a Dagan Corp. TEV-200 voltage clamp connected to a 386-SX IBM computer using a TL-1 DMA interface (Axon Instruments). […] Drug responses are analyzed with PClamp software (Axon Instruments). […]
Antagonist properties subsequent to agonist activity were measured as a decrease in responsiveness to ACh applied 5 min after compound-application, normalized to ACh application instead of the anabaseine-derivative (FIG. 13A AND FIG. 13B).

rat = conditions: adult rat

rat alpha4beta2 receptor, sequence (P09483 31-630): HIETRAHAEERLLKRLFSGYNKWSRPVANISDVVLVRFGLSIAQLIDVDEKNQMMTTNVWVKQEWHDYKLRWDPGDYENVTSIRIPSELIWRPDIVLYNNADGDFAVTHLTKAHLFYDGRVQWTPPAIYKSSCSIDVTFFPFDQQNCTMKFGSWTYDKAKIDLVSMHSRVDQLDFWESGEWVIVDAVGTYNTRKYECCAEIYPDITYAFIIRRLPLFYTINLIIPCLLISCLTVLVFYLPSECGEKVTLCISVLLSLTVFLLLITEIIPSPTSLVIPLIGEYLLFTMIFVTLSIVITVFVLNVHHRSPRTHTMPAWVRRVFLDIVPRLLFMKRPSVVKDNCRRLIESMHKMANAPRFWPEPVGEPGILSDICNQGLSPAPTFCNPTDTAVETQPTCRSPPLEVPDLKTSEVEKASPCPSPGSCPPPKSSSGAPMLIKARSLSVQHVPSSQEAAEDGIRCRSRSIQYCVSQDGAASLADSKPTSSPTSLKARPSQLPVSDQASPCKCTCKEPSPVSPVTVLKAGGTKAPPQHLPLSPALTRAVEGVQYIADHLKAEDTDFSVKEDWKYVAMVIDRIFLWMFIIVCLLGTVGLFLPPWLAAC
rat alpha4beta2 receptor, sequence (P12390 25-500): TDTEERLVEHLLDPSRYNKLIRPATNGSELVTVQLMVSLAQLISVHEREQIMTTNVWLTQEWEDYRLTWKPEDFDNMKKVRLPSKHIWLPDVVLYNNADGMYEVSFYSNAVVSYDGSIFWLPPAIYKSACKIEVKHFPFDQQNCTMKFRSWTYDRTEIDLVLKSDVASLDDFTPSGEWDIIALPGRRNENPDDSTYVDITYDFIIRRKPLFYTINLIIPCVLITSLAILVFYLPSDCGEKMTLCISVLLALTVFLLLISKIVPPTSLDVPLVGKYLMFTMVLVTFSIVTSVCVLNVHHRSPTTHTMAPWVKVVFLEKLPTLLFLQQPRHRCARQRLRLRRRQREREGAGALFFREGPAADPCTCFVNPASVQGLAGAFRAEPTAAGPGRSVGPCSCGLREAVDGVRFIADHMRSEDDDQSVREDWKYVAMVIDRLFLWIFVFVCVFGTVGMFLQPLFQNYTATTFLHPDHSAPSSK

`COc1ccccc1/C=C/C=C1\CCCN=C1c1cccnc1` [2-MeOCA, E,E-3-(2-Methoxycinnamylidene)anabaseine] was tested, and the “alpha4beta2 antagonism: % of antagonism of acetylcholine administered after drug” value (rat alpha4beta2 receptor) was 10.

`COc1ccc(/C=C2\CCCN=C2c2cccnc2)c(OC)c1` [DMXB, 3-(2,4-Dimethoxybenzylidene) anabaseine] was tested, and the “spontaneous locomotor activity (in words)” value (rat) was “without adversely affecting the animal's other functions, including its spontaneous locomotor activity”.
